Experimental data published in US10273208B2, “Screening methods for the binding affinity of chemical entities to biological molecules and NEDD4-1 inhibitors identified by the screening methods” (Northwestern University, priority 2014, dated 2019).

Key:
NEDD4-1 HECT domain = target: T1, NEDD4-1 HECT domain (Homo sapiens, UniProt P46934); assay: In vitro ubiquitination assays; assay type: biochemical; details: NEDD4-1 HECT pretreated with 1 mM compound for 3 h, quenched after 5 min
T1 construct: to elute NEDD4-1 HECT domain (50 mM HEPES, 150 mM NaCl, 0.1 mM EDTA 1 mM DTT); GST (N, cleaved yes); made in house; host or cells: E. coli BL21
T1 sequence (P46934 with tags, fused parts or gaps): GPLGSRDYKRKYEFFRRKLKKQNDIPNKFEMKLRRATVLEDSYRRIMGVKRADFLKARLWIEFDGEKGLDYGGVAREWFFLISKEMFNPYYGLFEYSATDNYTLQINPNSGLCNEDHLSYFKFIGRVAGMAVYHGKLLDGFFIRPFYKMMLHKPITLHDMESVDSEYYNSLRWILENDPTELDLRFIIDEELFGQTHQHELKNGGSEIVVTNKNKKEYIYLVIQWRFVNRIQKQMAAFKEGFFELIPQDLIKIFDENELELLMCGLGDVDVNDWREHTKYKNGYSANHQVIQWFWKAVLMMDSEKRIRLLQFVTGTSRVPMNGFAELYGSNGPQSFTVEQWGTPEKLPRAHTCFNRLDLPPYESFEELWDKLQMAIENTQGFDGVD
Description: FIG. 15A, FIG. 15B and FIG. 15C. (FIG. 15A) Enzymatic assay with compounds 1, 2, and 4. NEDD4-1 HECT domain was pretreated with 1% DMSO (lane 1), or 1 mM of compounds 1 (lane 2), 2 (lane 3), or 4 (lane 4) for 3 h before beginning the assay. The reaction mixtures were quenched after 5 min, and polyubiquitin chains were detected by Western blot with anti-ubiquitin antibody. (FIG. 15B) Cartoon depiction of the crystal structure of NEDD4-1:1 with key side chains and the inhibitor shown as spheres. (FIG. 15C) Close-up view of the inhibitor-binding site with the key side chains depicted as sticks and colored by atom type. The 2FO-FC electron density map (mesh, contoured at 1.0 σ) is presented for Cys^627 and 1.
FIG. 16A, FIG. 16B, FIG. 16C and FIG. 16D. (FIG. 16A) and (FIG. 16B) Compound 6 disrupts the NEDD4-1:Ub interaction as shown by a fluorescence polarization assay. Mean±s.e.m., n=3. (FIG. 16C) Compound 6 inhibits the ability of NEDD4-1 to polyubiquitinate the Wbp2-C-K222 protein substrate. NEDD4-1 was pretreated with 1% DMSO (lane 1), or 100 μM of compound 6 (lane 2) or compound 4 (lane 3) for 1.5 h before beginning the assay. Reaction mixtures were quenched at the indicated times and the amount of ubiquitinated Wbp2-C-K222 was determined using in-gel fluorescence. (FIG. 16D) Quantification of polyubiquitin chains in FIG. 16B. Mean±s.e.m., n=2. […]

[1] = NMR rate studies: pseudo-first order reaction with N-acetylcysteine methyl ester; assay type: physicochemical; details: electrophile 10 mM, N-acetyl cysteine methyl ester 78 mM, 2:1 deuterated PBS:DMSO-d6, pD 8, NMR
Source text: We further validated the utility of electrophile 3 as a thiol-reactive tether by making a library of one hundred structurally diverse drug-like fragments 6-105 containing this electrophile. The library was constructed with an HBTU amide coupling with commercially available carboxylic acid fragments (FIG. 2A). The acids were selected with “rule of three” criteria^15 and a subsequent diversity analysis. We measured the reaction rates for the first fifty fragments to confirm that this library would have balanced cysteine reactivity and could be used for irreversible tethering (FIG. 2B).
N-Acetyl cysteine methyl ester was dissolved in 2:1 deuterated PBS:DMSO-d6 (78 mM) with 10 mM CH2Cl2 as an internal standard. The electrophile (10 mM) was then added immediately prior to acquiring spectra. H1 spectra were taken every 30 s for 30 min (or every 4 s for 5 min for highly reactive compounds 1c and 2a-c). The integrals of the vinyl peaks were used to determine the concentration of the electrophile over time. The natural logarithm of the concentration of the electrophile versus time was then plotted using GraphPad Prism software. The linear slope of this plot was used to determine the pseudofirst order rate constant. Deuterated PBS recipe: 20 mM Na3PO4, 50 mM NaCl in D2O was adjusted to pD 8 with DC1 solution.

papain [2] = target: T2, papain (Carica papaya, UniProt P00784); assay: Irreversible tethering screening assay (whole protein ESI-MS) against papain; assay type: binding
T2 construct: purchased Sigma P4762
T2 sequence (P00784 134-345): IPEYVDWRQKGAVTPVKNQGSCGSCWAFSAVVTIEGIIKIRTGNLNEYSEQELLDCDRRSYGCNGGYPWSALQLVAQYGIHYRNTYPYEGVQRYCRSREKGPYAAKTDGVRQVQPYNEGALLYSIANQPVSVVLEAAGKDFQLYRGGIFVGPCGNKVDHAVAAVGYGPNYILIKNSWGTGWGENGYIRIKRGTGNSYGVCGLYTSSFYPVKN
Description: Papain (10 μM) was incubated for one hour with ten reaction mixtures that each contained ten electrophilic fragments (100 μM each) (Table S2).
Hits were defined as any compounds which labeled papain more than 50%. […] Such selectivity is impressive, given a 9-fold excess of other cysteine reactive electrophiles over compounds 6, 7, and 8. […] This is despite the fact that these reaction mixtures contain a 100-fold excess of cysteine reactive electrophiles relative to the highly reactive catalytic cysteine of papain. […]
10 μM of papain (Sigma P4762), UbcH7 (recombinantly expressed) or USPO8 (recombinantly expressed) in 50 mM HEPES 150 mM NaCl 0.1 mM EDTA pH 7.5 was treated with a mixture of ten fragments (Table S2) (10 mM DMSO stock solutions, final concentrations: 100 μM of each fragment, and 1% DMSO). […] The protein solution was then immediately analyzed by whole protein LC/ESI-MS. […]
200 μL of papain and compound 6-8 adducts were prepared separately as described above in “irreversible tethering screening assay” by incubating papain (10 μM) with 100 μM of compounds 6-8 in 1% DMSO 50 mM HEPES 150 mM NaCl 0.1 mM EDTA pH 7.5. […] The cassettes were dialyzed against 500 mL of 50 mM HEPES 150 Mm NaCl 0.1 mM EDTA pH 7.5 for 16 h, then 20 μL were extracted and analyzed by ESI-MS. […]

papain [3] = target: T2, papain; assay: Papain activity assay (Cbz-Gly-ONp, kinact/KI); assay type: biochemical
Description: We subsequently tested compounds 6-8 in an enzymatic assay to confirm that they inhibited papain in the concentration and time dependent manner that is characteristic of irreversible inhibitors.^18 Using assay conditions previously described for papain,^17 we determined kinact/K1 values for compounds 6-8 (FIGS. 4 and 10).
Papain (4.8 μM) in 50 mM Na3PO4 2 mM EDTA was preactivated with 1 mM DTT for 30 min. Activated papain (3.84 μM) in 4:1 mixture of 50 mM Na3PO4, 2 mM EDTA at pH 6.2 and acetronitrile was then preincubated for 1 h with varying concentrations of the electrophilic fragment. Every 10 min, 10 μL of the reaction mixture was added to a well of 96-well plate containing 100 μL of 4:1 50 mM Na3PO4 2 mM EDTA pH 6.2:acetronitrile with 400 μM Cbz-Gly-ONp. p-Nitrophenol product formation was monitored by absorbance at 340 nm (£: 6800 M-1 cm-1) with a Biotek Synergy 4 plate reader. All reactions were performed in duplicate. Product concentration versus time was plotted with GraphPad Prism software and the initial slope was calculated to determine enzymatic activity (E). The values of kinact/KI for each inhibitor were then determined according to the method of Kitz and Wilson.23 Briefly, the slopes of the plots of ln(100*Einhibited/Euninhibited) vs. time were used to determine the pseudo-first order inhibition constant kobs for a given concentration of a given inhibitor. […]

[4] = target: T3, human rhinovirus 3C protease (GST-HRV3C, PreScission protease) (Human rhinovirus 14, UniProt P03303); assay: Irreversible tethering counter-screen (ESI-MS) against HRV3C protease; assay type: binding; details: mixtures of ten fragments 100 μM each, 1 h
T3 construct: made in house; host or cells: E. coli Rosetta (DE3)pLysS
Description: FIG. 28A, FIG. 28B, FIG. 28C and FIG. 28D. Counterscreen of compound 6 against the deubiquitinase USPO8 and Human Rhinovirus (HRV) 3C protease, both of which have catalytic cysteines. Compound 6 at 100 μM in 1% DMSO was incubated with the catalytic domain of the indicated cysteine protease (10 μM) for 1 h, followed by gel filtration and whole protein ESI-MS.
To further test the specificity of the developed irreversible tethering system, we conducted a counter-screen of the same set of 100 compounds (10 mixtures of 10 compounds each) against three other enzymes: human rhinovirus 3C protease, the deubiquitinase USP08, and the E2 ubiquitin-conjugating enzyme UbcH7. […] The molecular weight of GST-HRV3C protease is 47566.72 Da and its amino acid sequence is provided as (SEQ ID NO:2).
10 μM of papain (Sigma P4762), UbcH7 (recombinantly expressed) or USPO8 (recombinantly expressed) in 50 mM HEPES 150 mM NaCl 0.1 mM EDTA pH 7.5 was treated with a mixture of ten fragments (Table S2) (10 mM DMSO stock solutions, final concentrations: 100 μM of each fragment, and 1% DMSO). The reaction mixture was incubated for 1 h or 4 h at 23° C. before being passed through Zeba gel filtration columns (Thermo, 7K MWCO) to remove unreacted fragments. The protein solution was then immediately analyzed by whole protein LC/ESI-MS.
Accurate-mass data were obtained on an Agilent 6210A LC-TOF mass spectrometer in positive ion mode using electrospray ionization. Samples were chromatographed on the LC-TOF instrument using a Poroshell 120 EC-C18 HPLC column (2.1*50 mm, 2.7 micron), an Agilent Series 1200 HPLC binary pump, and an Agilent Series 1200 autoinjector. The HPLC column was held at 45° C. and the autosampler was held at 8° C. Mobile Phase A was a solution of 0.1% formic acid in water:acetonitrile (19:1). Mobile Phase B was a solution of 0.1% formic acid in acetonitrile. The flow rate was set to 250 μL/min. The gradient used was 0% B for 2 minutes, ramping linearly to 90% B from 2 minutes to 5 minutes, holding at 90% B from 5 minutes to 7 minutes, and then returning to 0% B at 7.1 minutes. […]

T3 sequence (P03303 1538-1719, added parts left off): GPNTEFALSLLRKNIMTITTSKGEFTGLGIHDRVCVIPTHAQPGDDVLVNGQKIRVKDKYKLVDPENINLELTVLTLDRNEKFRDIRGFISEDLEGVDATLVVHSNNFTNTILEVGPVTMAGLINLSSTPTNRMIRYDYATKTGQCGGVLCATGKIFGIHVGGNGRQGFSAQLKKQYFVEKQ

Row | SMILES | k pseudo-first order [1] | labeling of HRV3C protease [4] | other results
1 | COC(=O)/C=C/CNC(=O)c1c[nH]nc1-c1cccc(F)c1 [Compound 4, Methyl(E)-4-(3-(3-fluorophenyl)-1H-pyrazole-4-carboxamido)but-2-enoate] | – | – | polyubiquitin chain assembly by NEDD4-1 (anti-ubiquitin Western blot) (NEDD4-1 HECT domain): did not affect NEDD4-1 activity
2 | COC(=O)/C=C/CNC(=O)c1ccc(C2CCCO2)s1 (stereo not shown) [Compound 19] | 0.0004396 s⁻¹ | – | covalent labeling of papain (papain [2]; papain 10 μM, mixtures of ten fragments 100 μM each, 1 h, hit = labeled papain more than 50%): did not label papain; fold less potent at inhibiting papain than the least potent inhibitor 6 (papain [3]): ~10 fold; fold less potent at inhibiting papain than the most potent inhibitor 7 (papain [3]): ~33 fold
3 | COC(=O)/C=C/CNC(=O)c1ccc2ccccc2n1 [Compound 32] | 0.0006296 s⁻¹ | ~20% | –
4 | COC(=O)/C=C/CNC(=O)c1csc(-c2cccs2)n1 [Compound 22] | 0.0007605 s⁻¹ | ~35% | –
5 | COC(=O)/C=C/CNC(=O)[C@H](Cc1ccccc1)NC(C)=O [Compound 106, reference compound] | – | – | effect of pretreatment of papain on subsequent labeling by compounds 6-8 (papain [2]; 100 μM 106 for 1 h, then 100 μM of 6, 7 or 8): blocked subsequent labeling by compounds 6-8
